Measured values reported in patent publication US20190358974A1, “COMPOSITIONS AND PARTICLES CONTAINING CELLULOSIC FIBERS AND STABILIZED- AND/OR ACTIVATED- UREASE INHIBITORS, AS WELL AS METHODS OF MAKING AND USING THE SAME” (INTERNATIONAL PAPER COMPANY, priority 2016, published 2019).

Assays:
[1] = Aging/degradation of PPDA on dry pulp, PPDA remaining tested by HPLC; assay type: physicochemical; conditions: 400 ppm PPDA on pulp stored on shelf as dry pulp, ambient conditions
Protocol: Bleached softwood pulp sheets were treated (sprayed) respectively with: 1) 400 ppm PPDA on pulp from water solution; 2) 400 ppm PPDA on pulp from PEG-200 solution; 3) 400 ppm PPDA on pulp from solution of 90% PEG-200 and 10% Talc powder. All the samples were dried on a dryer can at 195 F. They were then stored under room temperature (23 C) and 50% humidity chamber. The PPDA content remaining in the dry pulp samples was tested by HPLC.
They were then put into a controlled chamber with temperature of 55 C and 50% relative humidity. The PPDA content remaining in the dry pulp samples was tested by HPLC.
Accelerated aging study was done at 35 C and 50% RH with individual sheets thoroughly exposed to the environment. The control PPDA doses were 400 ppm and 1000 ppm based on the weight of the sheet, applied with water solution and dried. And the stabilized PPDA doses were also at 400 ppm and 1000 ppm on sheet, applied with 2% PPDA solution in PEG-200. The results are shown in the table below, and plotted in FIG. 4.
Aging test was also conducted on-shelf in the bag at room conditions. The result was shown in Table 12, and plotted in FIG. 5 in log scale.

[2] = cited from earlier work
[3] = system: Proteus mirabilis ATCC #7002; assay: Bacterial ammonia test: NH3 in headspace over fluff/SAP pad inoculated with bacteria in synthetic urine; assay type: cell-based; conditions: 400 ppm PPDA inside cellulosic pulp, stored dry at ambient conditions, 20 weeks
Text: Test Pad Sample Preparation • 1. Place a non-woven carrier on the 50 mm diameter SCAN pad former screen, attach tube, tare, and place on SCAN test piece former. • 2. Weigh out 0.60 gm fiberized pulp. Fibers should be “fluffy”, well dispersed, and spread evenly in the weighing pan. • 3. Sprinkle 0.40 gm SAP evenly over the fiber. • 4. Start the vacuum and feed the SAP/fiber into the forming cone through the feed tube, ensuring that both materials are simultaneously introduced. • 5. Remove the pad assembly from the former and weigh. Lightly compress the pad and remove the tube. • 6. Lift the non-woven carrier with the pad off of the screen. • 7. Press to ˜3 mm • 8. Seal pad wrapped in non-woven in a plastic ziplok bag until testing.
This is the Test Inoculum Solution.
At the end of the designated exposure period, the ammonia in the headspace of the sealed jar is measured using the Drager system. The sampling end of the Drager tube is fitted with a needle which is inserted through the septum. A vent needle is inserted to allow withdrawal of the gaseous sample. The opposite end of the measuring tube is attached to the Drager pump. Ammonia is withdrawn according to the manufacturer specifications for the tube and the measurement recorded.
The PPDA treated pulp was then shredded by a lab hammermill to convert into fluff fibers. […]

## NP(N)(=O)Oc1ccccc1 [PPDA, phenylphosphorodiamidate]
[1]
  stability inside cellulosic pulp: not stable
[2]; dry
  stability of dry PPDA: stable
[2]; in water
  stability in water: not stable
[3]
  effectiveness against ammonia generation: lost all its effectiveness against ammonia generation
